According to PMC10017709, “Structural basis of selective cannabinoid CB2 receptor activation” (Nature Communications, 2023):
“And” between values parts separate entries of the source, which are not always exact repeats. Identical values can stand only once. Like-named read-outs stand apart in the source and are kept apart here.

Key:
[1] = target: CB2R-E181^ECL2D (Homo sapiens, UniProt P34972, E181D); assay: [35S]GTPγS assay, CB2R E181D mutant; assay type: biochemical; settings: E181D mutant
[2] = target: T1, CB2R WT (Homo sapiens, UniProt P34972); assay: [3H]CP55,940 displacement assay, CB2R WT; assay type: binding
T1 sequence (P34972 whole entry): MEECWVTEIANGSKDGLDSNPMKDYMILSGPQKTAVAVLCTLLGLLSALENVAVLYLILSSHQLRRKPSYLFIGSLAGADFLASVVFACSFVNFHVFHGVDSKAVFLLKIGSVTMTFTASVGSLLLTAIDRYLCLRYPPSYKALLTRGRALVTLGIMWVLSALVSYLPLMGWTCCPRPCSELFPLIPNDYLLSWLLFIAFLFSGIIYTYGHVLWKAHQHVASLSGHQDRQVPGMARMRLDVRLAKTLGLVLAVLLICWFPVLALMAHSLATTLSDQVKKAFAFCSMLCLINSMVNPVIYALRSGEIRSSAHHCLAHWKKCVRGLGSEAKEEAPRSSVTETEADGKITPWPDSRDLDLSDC

[3] = target: T2, hCB2R (Homo sapiens, UniProt P34972); assay: [3H]RO6957022 competition association assay; assay type: binding; settings: for percentage specific [3H]RO6957022 binding (competition association): individual replicates
T2 construct: host or cells: CHO-K1 (CHOK1_hCB2bgal, PathHunter), membranes
T2 sequence (P34972 whole entry): as above

[4] = target: T3, CB1R D266ECL2E (Homo sapiens, UniProt P21554, D266E); assay: [35S]GTPγS assay, CB1R D266E mutant; assay type: biochemical; settings: CB1R D266E; 10 µM agonist
T3 construct: The WT CB1R and CB2R genes were subcloned into vector pcDNA3.1; HA signal peptide (N); expressed in transfected cells; host or cells: HEK293T (transient, membrane homogenates)
T3 sequence (P21554 whole entry D266E): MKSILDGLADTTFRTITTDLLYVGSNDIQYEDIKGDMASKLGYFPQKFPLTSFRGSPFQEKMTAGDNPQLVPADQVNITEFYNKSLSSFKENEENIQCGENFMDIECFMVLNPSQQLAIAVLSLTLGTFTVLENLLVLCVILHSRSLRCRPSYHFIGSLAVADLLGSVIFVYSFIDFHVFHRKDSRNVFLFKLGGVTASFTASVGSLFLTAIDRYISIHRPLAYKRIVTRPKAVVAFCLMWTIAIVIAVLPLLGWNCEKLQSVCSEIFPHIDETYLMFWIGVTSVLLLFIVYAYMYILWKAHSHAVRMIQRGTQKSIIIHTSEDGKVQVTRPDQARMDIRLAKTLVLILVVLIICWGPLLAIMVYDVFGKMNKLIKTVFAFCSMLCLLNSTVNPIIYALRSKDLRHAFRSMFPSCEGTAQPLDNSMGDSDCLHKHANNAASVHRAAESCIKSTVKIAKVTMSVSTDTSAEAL

[5] = target: T4, CB2R-Quadruple^TM1,7 (Homo sapiens, UniProt P34972, C40S/K279T/K33Q/V36I); assay: [3H]CP55,940 displacement assay, CB2R quadruple mutant; assay type: binding; settings: CB2R Quadruple TM1,7 mutant; <5 when curve fit not finished
T4 sequence (P34972 whole entry K33Q/V36I/C40S/K279T): as the sequence (P34972 whole entry) above, with K33Q, V36I, C40S, K279T counted along it

[6] = target: T5, CB2R-L185^ECL2H (Homo sapiens, UniProt P34972, L185H); assay: [3H]CP55,940 displacement assay, CB2R L185H mutant; assay type: binding
T5 sequence (P34972 whole entry L185H): as the sequence (P34972 whole entry) above, with L185H counted along it

[7] = target: T2, hCB2R; assay: [3H]RO6957022 displacement assay; assay type: binding; settings: for percentage specific [3H]RO6957022 binding (displacement): individual replicates
[8] = target: hCB1R WT (Homo sapiens, UniProt P21554); assay: [35S]GTPγS G protein activation assay, CB1R WT; assay type: biochemical; settings: CB1R WT; 10 µM agonist
Chain of hCB1R WT (P21554 whole entry): as the sequence (P21554 whole entry D266E) above, with E266D counted along it

[9] = target: CB2R-L182^ECL2I (Homo sapiens, UniProt P34972, L182I); assay: [35S]GTPγS assay, CB2R L182I mutant; assay type: biochemical; settings: L182I mutant
Chain of CB2R-L182^ECL2I (P34972 whole entry L182I): as the sequence (P34972 whole entry) above, with L182I counted along it

[10] = target: CB2R-I110^3.29L (Homo sapiens, UniProt P34972, I110L); assay: [3H]CP55,940 displacement assay, CB2R I110L mutant; assay type: binding
Chain of CB2R-I110^3.29L (P34972 whole entry I110L): as the sequence (P34972 whole entry) above, with I110L counted along it

[11] = target: T5, CB2R-L185^ECL2H; assay: [35S]GTPγS assay, CB2R L185H mutant; assay type: biochemical; settings: L185H mutant
[12] = target: CB1R I267ECL2L (Homo sapiens, UniProt P21554, I267L); assay: [35S]GTPγS assay, CB1R I267L mutant; assay type: biochemical; settings: CB1R I267L; 10 µM agonist
Chain of CB1R I267ECL2L (P21554 whole entry I267L): as the sequence (P21554 whole entry D266E) above, with E266D, I267L counted along it

[13] = target: T1, CB2R WT; assay: [35S]GTPγS G protein activation assay, CB2R WT; assay type: biochemical; settings: for Emax: CB2R WT, read-out: Emax (%); for [35S]GTPγS binding, percentage of WT / [35S]GTPγS binding, percentage of CP55,940: individual replicates
[14] = target: CB1R-H270^ECL2L (Homo sapiens, UniProt P21554, H270L); assay: [35S]GTPγS assay, CB1R H270L mutant; assay type: biochemical; settings: CB1R H270L; 10 µM agonist
Chain of CB1R-H270^ECL2L (P21554 whole entry H270L): as the sequence (P21554 whole entry D266E) above, with E266D, H270L counted along it

[15] = target: CB1R-L359^6.51V (Homo sapiens, UniProt P21554, L359V); assay: [35S]GTPγS assay, CB1R L359V mutant; assay type: biochemical; settings: CB1R L359V; 10 µM agonist
Chain of CB1R-L359^6.51V (P21554 whole entry L359V): as the sequence (P21554 whole entry D266E) above, with E266D, L359V counted along it

[16] = system: CB1R QuadrupleTM1,7; assay: [35S]GTPγS assay, CB1R quadruple mutant; assay type: biochemical, human; settings: CB1R Quadruple TM1,7; 10 µM agonist
[17] = target: T4, CB2R-Quadruple^TM1,7; assay: [35S]GTPγS assay, CB2R quadruple mutant; assay type: biochemical; settings: for [35S]GTPγS binding, percentage of WT: QuadrupleTM1,7, individual replicates
Method: In short, transient HEK293T membrane homogenates (10 µg/well) were diluted in assay buffer (50 mM Tris-HCl (pH 7.4), 5 mM MgCl2, 150 mM NaCl, 1 mM EDTA, 0.05% BSA (w/v) and 1 mM DTT, freshly prepared every day) and were pretreated with 10 µg saponin and 1 µM GDP. For endocannabinoid samples, the membranes were additionally pretreated for 30 min with 50 µM PMSF before agonist addition. […] Basal receptor activity was determined in the presence of vehicle only (0.2% DMSO/acetonitrile). […] Filtration was performed, and filter-bound radioactivity was determined as described under [^3H]RO6957022 Competition Association Assays except for using ice-cold 50 mM Tris-HCl (pH 7.4), 5 mM MgCl2 buffer.

[18] = at 10 µM compared to WT, read-out: Emax (%)

Chain of CB2R-E181^ECL2D (P34972 whole entry E181D): as the sequence (P34972 whole entry) above, with E181D counted along it

## CCCCC/C=C\C/C=C\C/C=C\C/C=C\CCCC(=O)OC(CO)CO [2-AG, 2-arachidonoylglycerol]
[1]; <5 when curve fit not finished
  EC50: > 10000 nM
[1]; [18]
  Emax: 22 ± 15%
[2]
  Ki: 1580 nM
[3]; KD = koff/kon, read-out: Kinetic KD
  Kd: 42.7 nM
[3]; Time 1 min
  percentage specific [3H]RO6957022 binding (competition association): 2.75% and 8.28% and -0.30%
[3]; Time 3 min
  percentage specific [3H]RO6957022 binding (competition association): 14.15% and 22.81% and 17.03%
[3]; Time 5 min
  percentage specific [3H]RO6957022 binding (competition association): 22.93% and 20.44% and 8.60%
[3]; Time 7 min
  percentage specific [3H]RO6957022 binding (competition association): 18.57% and 22.56% and 19.64%
[3]; Time 10 min
  percentage specific [3H]RO6957022 binding (competition association): 21.07% and 23.19% and 30.43%
[3]; Time 20 min
  percentage specific [3H]RO6957022 binding (competition association): 26.97% and 35.00% and 33.48%
[3]; Time 30 min
  percentage specific [3H]RO6957022 binding (competition association): 25.36% and 45.58% and 22.89%
[3]; Time 45 min
  percentage specific [3H]RO6957022 binding (competition association): 33.64% and 44.13% and 30.07%
[3]; Time 60 min
  percentage specific [3H]RO6957022 binding (competition association): 37.87% and 46.21% and 40.22%
[3]; Time 90 min
  percentage specific [3H]RO6957022 binding (competition association): 43.62% and 64.89% and 33.23%
[3]; Time 120 min
  percentage specific [3H]RO6957022 binding (competition association): 44.54% and 60.70% and 44.33%
[3]; at 1 µM agonist, ET = 1/(kon ∙ 1 × 10-6)
  ET (engagement time): 18.8 ± 3.61 s
[4]
  Agonist-mediated activation: 1.5 ± 0.2 fold over its basal
[5]
  Ki: > 10000 nM
[6]
  Ki: 398 nM
[7]; CHOK1_hCB2bgal membranes, 10 °C
  Ki: 97.3 nM
[7]; log [agonist] (M) -5
  percentage specific [3H]RO6957022 binding (displacement): -4.06% and 1.99% and 1.24%
[7]; log [agonist] (M) -6
  percentage specific [3H]RO6957022 binding (displacement): 9.18% and 29.61% and 23.88%
[7]; log [agonist] (M) -7
  percentage specific [3H]RO6957022 binding (displacement): 74.28% and 92.58% and 77.97%
[7]; log [agonist] (M) -8
  percentage specific [3H]RO6957022 binding (displacement): 95.23% and 106.70% and 113.70%
[8]
  Agonist-mediated activation: 1.3 ± 0.1 fold over its basal
[9]; <5 when curve fit not finished
  EC50: > 10000 nM
[9]; [18]
  Emax: 15 ± 9%
[10]
  Ki: 1580 nM
[11]; HEK293T membranes
  EC50: 1260 nM
[11]; [18]
  Emax: 171 ± 16%
[12]
  Agonist-mediated activation: 1.1 ± 0.0 fold over its basal
[13]; maximum effect at 10 µM compared to WT (Suppl. Table 6)
  Emax: 85 ± 2%
[13]; maximum effect compared to CP55,940
  Emax: 93 ± 22%
[13]; log [ligand] (M) -5
  [35S]GTPγS binding, percentage of WT: 81.88 percentage of WT and 83.76 percentage of WT and 88.90 percentage of WT
[13]; log [ligand] (M) -6
  [35S]GTPγS binding, percentage of WT: 30.38 percentage of WT and 55.12 percentage of WT and 21.88 percentage of WT
[13]; log [ligand] (M) -7
  [35S]GTPγS binding, percentage of WT: 23.64 percentage of WT and 24.41 percentage of WT and 16.38 percentage of WT
[13]; log [ligand] (M) -8
  [35S]GTPγS binding, percentage of WT: 45.75 percentage of WT and 38.50 percentage of WT and 15.70 percentage of WT
[13]; [35S]GTPγS, HEK293T membranes transiently expressing CB2R WT
  EC50: 1260 nM
[13]; log [agonist] (M) -5
  [35S]GTPγS binding, percentage of CP55,940: 64.32% and 135.41% and 79.23%
[13]; log [agonist] (M) -6
  [35S]GTPγS binding, percentage of CP55,940: 23.86% and 33.33% and 42.53%
[13]; log [agonist] (M) -7
  [35S]GTPγS binding, percentage of CP55,940: 18.57% and 24.95% and 4.53%
[13]; log [agonist] (M) -8
  [35S]GTPγS binding, percentage of CP55,940: 35.93% and 23.91% and 2.02%
[14]
  Agonist-mediated activation: 1.5 ± 0.1 fold over its basal
[15]
  Agonist-mediated activation: 1.4 ± 0.2 fold over its basal
[16]
  Agonist-mediated activation: 1.8 ± 0.1 fold over its basal
[17]; Quadruple TM1,7 mutant, <5 when curve fit not finished
  EC50: > 10000 nM
[17]; Quadruple TM1,7 mutant, at 10 µM compared to WT, read-out: Emax (%)
  Emax: 6 ± 4%
[17]; log [ligand] (M) -5
  [35S]GTPγS binding, percentage of WT: 11.95 percentage of WT and 6.85 percentage of WT and -0.68 percentage of WT
[17]; log [ligand] (M) -6
  [35S]GTPγS binding, percentage of WT: 26.61 percentage of WT and 0.18 percentage of WT
[17]; log [ligand] (M) -7
  [35S]GTPγS binding, percentage of WT: -4.94 percentage of WT and -35.40 percentage of WT and 2.05 percentage of WT
[17]; log [ligand] (M) -8
  [35S]GTPγS binding, percentage of WT: -0.27 percentage of WT and -23.76 percentage of WT and 1.32 percentage of WT
